According to patent US20050054585A1, “Agent controlling the production of osteoclast formation regulator and method of screening substance capable of controlling the production of osteoclast formation regulator” (priority 2001, published 2005):

What was measured:
[1] = test system: OPG production in MG-63 cells, ATCC CRL 1427; assay: Screening for control of the production of OPG in MG-63 cells; type: cell-based, human; conditions: saccharide solutions Nos. 1 to 7, 2-day culture
[2] = test system: OPG production in FHs 74 Int cells, ATCC CCL 241; assay: Production of OPG in FHs 74 Int cell culture supernatant, Western Blotting; type: cell-based, human; conditions: 2-day culture with saccharide (1 mg/ml; α,α-trehalose 1, 0.2, 0.04 mg/ml), control without saccharide = 100
Experimental: FHs 74 Int cells, ATCC CCL 241, were inoculated to 96-well plates, with D-MEM medium prepared by adding fetal calf serum, commercialized by GIBCO Bethesda Research Laboratories, Bethesda, Md., USA, to the serum-free culture medium shown in Table 1 below to give a final concentration of 10% (v/v), a final cell density of 1.2×10^4 cells/well, and a final volume of 200 μl; and incubated at 37° C. for 48 hours in a 5% CO2 (V/V) incubator. After completion of the culture, the resultant cells were washed thrice (200 μl×3) with the serum-free D-MEM medium in Table 1. […] Two hundred microliters of each of the saccharide solutions of Nos.1 to 7 were placed in each well of the 96-well plates with the cells, and the cells were incubated at 37 C for two days in a 5% CO2 (v/v) incubator. The culture supernatant in each well was sampled and assayed for the production level of OPG by the Western Blotting method as indicated below using a recombinant human OPG commercialized by R & D Systems Inc., MN, USA. In parallel, a cell culture system with no saccharide, as a control group, was provided and cultured, and the supernatant of the cell culture was sampled on day 2 after the initiation of the cell culture and assayed for the production level of OPG similarly as in the test group.
Fifteen microliters of any of the cell culture supernatants of the test solutions and the control solution, and five microliters of dithiothreitol (DTT) solution for cell treatment were mixed and heated at 99° C. for five minutes. Each of the resulting solutions with heat treatment was developed on SDS-polyacrylamide gel electrophoresis (SDS-PAGE) using multi-gel 4/20 commercialized by Daiichi Pure Chemicals Co., Ltd., Tokyo, Japan; and the gels were transferred to PVDF membranes commercialized by Nihon Millipore Corporation, Tokyo, Japan. The resulting PVDF membranes were blocked with a solution of “BLOCK ACE™”, commercialized by Dainippon Pharmaceutical Co., Ltd., Tokyo, Japan, and contacted with an anti-human OPG antibody as a primary antibody, commercialized by R & D Systems, MN, USA, and an HRP anti-goat IgG antibody, as a secondary antibody, commercialized by Sigma Chemical Co., MO, USA; followed by detecting proteins reacted with these antibodies in accordance with the method described in Experimental Medicine, special edition, titled Handbook for novel recombinant technology, pp. 222-226 (1999). The coloration was effected by using ECL reagent, commercialized by Amersham Pharmacia Biotechnology, IL, USA; exposing “[sequence] ECL™”; and measuring the expression intensity by using “IMAGE MASTER™”, commercialized by Amersham Biosciences, Tokyo, Japan.

[3] = test system: OPG; assay: Administration test in healthy volunteers, blood OPG by ELISA; type: in vivo, human; conditions: for production level of OPG in blood: 100 ml of 10% (w/v) solution orally after fasting, blood at six hours, ELISA
Experimental: Eighteen healthy volunteers, aged 35 to 50-years-old, were divided into three groups A, B, and C, consisting of three males and three females in each group. […] As a control solution, 1,000 ml of deionized water were sterilized with a membrane filter. These test and control solutions were stored at about 10° C. in a refrigerator until initiating the test. The volunteers in the groups A to C were allowed to fast, except for water, from 10 p.m. at night just before initiating the test, and 100 ml aliquots of the test solution 1, the test solution 2, and the control solution were administered to the groups A, B, and C, respectively, at 6 a.m. on the next day. Thereafter, all the volunteers were allowed to stay indoors calmly and sampled their blood at six hours after the administrations. The sampled bloods were centrifuged at […] for 10 min and quantified for OPG with “RS000805”, a product code number for ELISA system for assaying OPG commercialized by Funakoshi Co., Ltd., Tokyo. Japan.

[4] = test system: ddy mice; conditions: 15 g/kg body weight, by syringe or intubationally with stomach sonde, observed seven days
Experimental: Either of the sterilized saccharide solutions was administered with a syringe or intubationally administered with a stomach sonde to five groups of ddy mice, having 20 to 25 g body weight, consisting of five heads in each group. The mice were observed their conditions for seven days.

SMILES | production of OPG compared with a control culture system free of saccharide [1] | expression intensity of OPG versus control cell culture system [2] | production level of OPG in blood ([3]; healthy volunteers) | complaints of abnormality after administration ([3]; human, in vivo, po) | mortality [4] | complaints of abnormality after administration ([3]; healthy volunteers, 100 ml of 10% (w/v) solution orally)
OC[C@H]1O[C@H](O[C@H]2[C@H](O)[C@@H](O)C(O)O[C@@H]2CO)[C@H](O)[C@@H](O)[C@@H]1O (mixture of isomers) [maltose] | remarkably inhibited the production of OPG | lower than that for the control cell culture system | – | – | – | –
O=C[C@H](O)[C@@H](O)[C@H](O)[C@H](O)CO [D-glucose] | remarkably inhibited the production of OPG | lower than that for the control cell culture system | significantly lower production level of OPG than that of the group C with the control solution | no volunteer | no mouse died | –
OC[C@H]1O[C@@](CO)(O[C@H]2O[C@H](CO)[C@@H](O)[C@H](O)[C@H]2O)[C@@H](O)[C@@H]1O [sucrose] | remarkably inhibited the production of OPG | lower than that for the control cell culture system | – | – | no mouse died | –
OC[C@H]1O[C@H](O[C@H]2O[C@H](CO)[C@@H](O)[C@H](O)[C@H]2O)[C@H](O)[C@@H](O)[C@@H]1O [α,α-trehalose] | distinctly enhanced the production of OPG | higher than that for the control cell culture system | significantly higher than those with the test solution 2 and the control solution | – | no mouse died | no volunteer
